In the Deep4Chem optical property database:

Assay: solvent given as SMILES

In the case of `CN(C)c1ccc(/C=C/C=C2\CC/C(=C\C=C\c3ccc(N(C)C)cc3)C2=O)cc1`, the emission maximum (in C1CCCCC1) was 500 nm, the emission maximum (in CC#N) was 717 nm and the emission maximum (in CC(C)=O) was 694 nm. For the same molecule, the emission maximum (in CC(C)O) was 718 nm, the emission maximum (in CCCCCC) was 496 nm and the emission maximum (in CCCCO) was 739 nm. It also gave an emission maximum (in CCCO) of 740 nm, an emission maximum (in CCO) of 744 nm and an emission maximum (in CCOC(C)=O) of 644 nm. It also gave an emission maximum (in CCOCC) of 586 nm, an emission maximum (in CN(C)C=O) of 715 nm and an emission maximum (in CO) of 735 nm. For the same molecule, the emission maximum (in CS(C)=O) was 727 nm, the emission maximum (in Cc1ccccc1) was 553 nm and the emission maximum (in ClC(Cl)(Cl)Cl) was 537 nm. For the same molecule, the emission maximum (in ClCCl) was 672 nm, the emission maximum (in OCC(F)(F)F) was 764 nm and the emission maximum (in S=C=S) was 568 nm. The emission maximum (in c1ccccc1) was 567 nm and the emission maximum (in c1ccncc1) was 681 nm.
For `CCCCC(CC)Cn1c2cc(C#N)ccc2c2ccc(C#Cc3ccc4ccc5c(C#Cc6ccc7c8ccc(C#N)cc8n(CC(CC)CCCC)c7c6)cc(C#Cc6ccc7c8ccc(C#N)cc8n(CC(CC)CCCC)c7c6)c6ccc3c4c56)cc21` (stereo unspecified), the emission maximum (in ClCCl) was 458 nm.
Work on `F[B-]1(F)n2c(c(Sc3ccccc3)c3c2-c2ccccc2CC3)C=C2C(Sc3ccccc3)=C3CCc4ccccc4C3=[N+]21` yielded an emission maximum (in CC#N) of 661 nm.
`N#Cc1c(-n2c3ccccc3c3cc(I)ccc32)c(-n2c3ccccc3c3cc(I)ccc32)c(C#N)c(-n2c3ccccc3c3cc(I)ccc32)c1-n1c2ccccc2c2cc(I)ccc21` showed an emission maximum (in Cc1ccccc1) of 548 nm.
With `C(=C\c1ncnc2ccccc12)/c1ccc(-c2ccc(N(c3ccccc3)c3ccccc3)cc2)cc1` the emission maximum (in C1CCCCC1) was 461 nm, the emission maximum (in C1CCOC1) was 572 nm and the emission maximum (in CC#N) was 642 nm. It also gave an emission maximum (in CS(C)=O) of 641 nm and an emission maximum (in ClCCl) of 610 nm.
`COC(=O)C(Cc1ccc2oc(-c3ccc(N(C)C)cc3)nc2c1)NC(=O)OC(C)(C)C` (stereo unspecified) showed an emission maximum (in C1CCCCC1) of 377 nm, an emission maximum (in C1CCOC1) of 391.5 nm and an emission maximum (in C1COCCO1) of 377 nm. For the same molecule, the emission maximum (in CC1CCCO1) was 384.5 nm, the emission maximum (in CC1COC(=O)O1) was 404.01 nm and the emission maximum (in CC#N) was 395.51 nm. It also gave an emission maximum (in CC(C)=O) of 394.49 nm, an emission maximum (in CC(C)CC(C)(C)C) of 375 nm and an emission maximum (in CC(C)CO) of 396.49 nm. For the same molecule, the emission maximum (in CC(C)O) was 397 nm, the emission maximum (in CC(C)OC(C)C) was 387.51 nm and the emission maximum (in CC(O)CO) was 408.5 nm. The emission maximum (in CCC(C)CC) was 374.5 nm, the emission maximum (in CCCCC) was 374 nm and the emission maximum (in CCCCCC) was 375 nm. For the same molecule, the emission maximum (in CCCCCCCCC) was 376 nm, the emission maximum (in CCCCCCCCCC) was 377 nm and the emission maximum (in CCCCCCCO) was 396.49 nm. The emission maximum (in CCCCCCO) was 397.99 nm, the emission maximum (in CCCCCO) was 388.5 nm and the emission maximum (in CCCCO) was 399.5 nm. For the same molecule, the emission maximum (in CCO) was 403 nm, the emission maximum (in CCOC(C)=O) was 381.5 nm and the emission maximum (in CCOCC) was 379.51 nm. The emission maximum (in CN(C)C=O) was 400.5 nm, the emission maximum (in CO) was 403.5 nm and the emission maximum (in COCCOC) was 395.51 nm. The emission maximum (in CS(C)=O) was 408.5 nm, the emission maximum (in Cc1ccccc1) was 374.5 nm and the emission maximum (in Cc1ccccc1C) was 373 nm. The emission maximum (in ClC(Cl)Cl) was 382 nm, the emission maximum (in ClCCl) was 388 nm and the emission maximum (in NC=O) was 411.51 nm. The emission maximum (in OC1CCCCC1) was 398.99 nm, the emission maximum (in OCCO) was 408.5 nm and the emission maximum (in c1ccccc1) was 375.5 nm.
In the case of `CCC1(CC)c2ccccc2-c2ccc(C#Cc3ccc4ccc5cccc6ccc3c4c56)cc21`, the emission maximum (in C1CCCCC1) was 407 nm, the emission maximum (in C1CCOC1) was 410 nm and the emission maximum (in CC#N) was 408 nm. It also gave an emission maximum (in CCOC(C)=O) of 406 nm, an emission maximum (in CN(C)C=O) of 412 nm and an emission maximum (in Cc1ccccc1) of 412 nm. It also gave an emission maximum (in ClC(Cl)Cl) of 413 nm and an emission maximum (in ClCCl) of 412 nm.
In the case of `CC[B-]1(CC)c2cccc3c4c5c(cccc5c(c23)-c2cccc(C)[n+]21)[B-](CC)(CC)[n+]1c(C)cccc1-4`, the emission maximum (in ClCCl) was 620 nm.
In the case of `c1ccc(C2=C(c3ccccn3)[Si](c3ccccc3)(c3ccccc3)c3ccccc32)cc1`, the emission maximum (in ClCCl) was 406 nm.
Molecule `CC[N+](CC)=c1ccc2c(-c3ccccc3C(=O)O)c3cc4c(-c5ccccc5C(=O)O)c5ccc(=[N+](CC)CC)cc-5oc4cc3oc-2c1` has an emission maximum (in ClC(Cl)Cl) of 622 nm.
`C/C(=C\c1ccccc1)c1nc2ccccc2o1` showed an emission maximum (in C1CCCCC1) of 370 nm and an emission maximum (in CO) of 380 nm.
For `CCCCCCCCOc1ccc(C#Cc2ccc(C#Cc3ccc(OCCCCCCCC)c(OCCCCCCCC)c3)c3nc4c5ccccc5c5ccccc5c4nc23)cc1OCCCCCCCC`, the emission maximum (in C1CCOC1) was 558 nm, the emission maximum (in Cc1ccccc1) was 541 nm and the emission maximum (in ClCCl) was 566 nm.
`COC1=[N+]2C(=C(c3ccc(C)cc3)c3ccc(OC)n3[B-]2(F)F)C=C1` gave an emission maximum (in C1CCCCC1) of 525 nm, an emission maximum (in C1CCOC1) of 528 nm and an emission maximum (in CC#N) of 522 nm. It also gave an emission maximum (in CCOC(C)=O) of 526 nm, an emission maximum (in CO) of 523 nm and an emission maximum (in Cc1ccccc1) of 530 nm. It also gave an emission maximum (in ClC(Cl)Cl) of 529 nm.
In the case of `O=CN1N=C(c2ccc(Br)cc2)C[C@@H]1c1ccccc1`, the emission maximum (in C1CCCCC1) was 348 nm, the emission maximum (in C1COCCO1) was 352 nm and the emission maximum (in CC#N) was 351 nm. The emission maximum (in CCO) was 345 nm, the emission maximum (in CCOC(C)=O) was 350 nm and the emission maximum (in CO) was 350 nm. For the same molecule, the emission maximum (in CS(C)=O) was 356 nm, the emission maximum (in Cc1ccccc1) was 349 nm and the emission maximum (in ClC(Cl)(Cl)Cl) was 351 nm.
In the case of `CCCCCCCCOc1ccc(-c2c3c4n(c(-c5ccc(OCCCCCCCC)cc5)c3c3n2[B-](F)(F)[n+]2ccccc2N=3)[B-](F)(F)[n+]2ccccc2N=4)cc1`, the emission maximum (in ClC(Cl)Cl) was 661 nm.
For `CC(C)(C)c1cc2c(c(C(C)(C)C)c1)O[B-](F)(F)[n+]1c-2nc(-c2ccccc2)c2cc(Cl)ccc21`, the emission maximum (in Cc1ccccc1) was 552 nm.
In the case of `c1ccc(-n2c(-c3ccc(-c4ccc5c(c4)C4(c6ccccc6-c6ccccc64)c4cc(-c6ccc(-c7nc8ccccc8n7-c7ccccc7)cc6)c6ccccc6c4-5)cc3)nc3ccccc32)cc1`, the emission maximum (in ClC(Cl)Cl) was 440 nm.
In the case of `O=S(=O)([O-])c1ccc2c(O)cc(S(=O)(=O)[O-])cc2c1`, the emission maximum (in O) was 385 nm.
With `Cc1cccc(C)c1Nc1ccc(/C=C/c2cccnc2)cc1` the emission maximum (in CC#N) was 450 nm and the emission maximum (in CCCCCC) was 383 nm.
`C(=C\c1ccncn1)/c1ccc(N2CCCCC2)cc1` gave an emission maximum (in C1CCOC1) of 486 nm, an emission maximum (in CC#N) of 514 nm and an emission maximum (in CCCCCCC) of 435 nm. It also gave an emission maximum (in CS(C)=O) of 521 nm and an emission maximum (in ClCCl) of 498 nm.
With `CC(C)(C)c1ccc(-c2nnc(-c3c(-n4c5ccccc5c5ccccc54)c(-n4c5ccccc5c5ccccc54)c(-c4nnc(-c5ccc(C(C)(C)C)cc5)o4)c(-n4c5ccccc5c5ccccc54)c3-n3c4ccccc4c4ccccc43)o2)cc1` the emission maximum (in Cc1ccccc1) was 569 nm and the emission maximum (in c1cc(-n2c3ccccc3c3ccccc32)nc(-n2c3ccccc3c3ccccc32)c1) was 527 nm.
For `COc1ccc(C(=O)OCc2c(C)c(=O)n3c(=O)c(C)c(C)n23)cc1`, the emission maximum (in CCO) was 461 nm.
Work on `C[Si](C)(C)[Si](C)(C)c1ccc2cc3ccccc3cc2c1` yielded an emission maximum (in C1CCCCC1) of 411 nm and an emission maximum (in CC#N) of 412 nm.
In the case of `O=C(O)c1cc(O)c(O)c(O)c1`, the emission maximum (in O) was 341 nm.
Molecule `COc1ccc(-c2cnc(-c3ccccc3)o2)cc1OC` has an emission maximum (in ClCCl) of 400 nm.
With `COc1ccc(O)cc1C=O` the emission maximum (in CO) was 489 nm and the emission maximum (in ClC(Cl)Cl) was 433 nm.
Work on `F[B-]1(F)n2c(ccc2-c2nc3ccccc3s2)C(c2ccccc2)=C2C=CC(c3nc4ccccc4s3)=[N+]21` yielded an emission maximum (in ClC(Cl)Cl) of 643 nm.
For `C/C(=N\Nc1ccc(C#N)cc1)c1cccc(/C(C)=N/Nc2ccc(C#N)cc2)c1`, the emission maximum (in CC#N) was 492 nm, the emission maximum (in CCCCCC) was 467 nm and the emission maximum (in CO) was 525 nm. For the same molecule, the emission maximum (in CS(C)=O) was 504 nm and the emission maximum (in ClC(Cl)Cl) was 476 nm.
Work on `CCN(CC)c1ccc(/C=N/c2cc3nc4ccccc4nc3cc2/N=C/c2ccc(N(CC)CC)cc2O)c(O)c1` yielded an emission maximum (in CC#N) of 551 nm, an emission maximum (in CN(C)C=O) of 599 nm and an emission maximum (in ClCCl) of 568 nm.
With `Oc1ccc(C2=N[N+]3=Cc4c(ccc5ccccc45)O[B-]3(c3ccc([B-]45OC(c6ccc(O)cc6)=N[N+]4=Cc4c(ccc6ccccc46)O5)cc3)O2)cc1` (stereo unspecified) the emission maximum (in C1CCOC1) was 477 nm.
`COc1ccc2c(c1)c(C#N)c(C#N)c1cc(OC)ccc12` gave an emission maximum (in ClC(Cl)Cl) of 440 nm.
`COc1ccc(N(c2ccccc2)c2ccc3ccc4c(N(c5ccccc5)c5ccc(OC)cc5)ccc5ccc2c3c54)cc1` showed an emission maximum (in ClCCl) of 513 nm.
`CCN(CC)c1ccc2cc(-c3ccc(C(F)(F)F)cc3)oc(=O)c2c1` gave an emission maximum (in CC(C)=O) of 454 nm, an emission maximum (in CCCCCC) of 418 nm and an emission maximum (in CCCCO) of 468 nm. For the same molecule, the emission maximum (in CCCO) was 470 nm, the emission maximum (in CCO) was 471 nm and the emission maximum (in CCOC(C)=O) was 443 nm. For the same molecule, the emission maximum (in CN(C)C=O) was 462 nm, the emission maximum (in CO) was 475 nm and the emission maximum (in ClC(Cl)Cl) was 450 nm.
In the case of `COc1cccc(OC)c1-c1c2ccc(=[N+]3CCN(C(=O)OC(C)(C)C)CC3)cc-2oc2cc(N3CCN(C(=O)OC(C)(C)C)CC3)ccc12`, the emission maximum (in ClCCl) was 580 nm.
In the case of `N#C/C(=C\c1ccc(Cl)cc1)c1nc(-c2ccccc2)c(-c2ccccc2)s1`, the emission maximum (in CC#N) was 501 nm.
`C(#Cc1nc2ccccc2s1)c1ccc(N(c2ccc(C#Cc3nc4ccccc4s3)cc2)c2ccc(C#Cc3nc4ccccc4s3)cc2)cc1` showed an emission maximum (in Cc1ccccc1) of 434 nm.
`CCc1c(C)[nH]c(C2=[N+]3C(=Cc4c(C)cc(C)n4[B-]3(F)F)c3ccccc32)c1C` gave an emission maximum (in C1CCOC1) of 635 nm, an emission maximum (in CC#N) of 632 nm and an emission maximum (in CCCCCC) of 630 nm. It also gave an emission maximum (in CO) of 631 nm, an emission maximum (in Cc1ccccc1) of 642 nm and an emission maximum (in ClCCl) of 640 nm.
With `CC(C)(C)c1ccc2c(c1)c1cc(C(C)(C)C)ccc1n2-c1cccc(-c2nc(-c3cccc(-n4c5ccc(C(C)(C)C)cc5c5cc(C(C)(C)C)ccc54)c3)nc(-c3cccc(P(=O)(c4ccccc4)c4ccccc4)c3)n2)c1` the emission maximum (in C1CCOC1) was 514.41 nm, the emission maximum (in CC#N) was 572.13 nm and the emission maximum (in CC(C)=O) was 552.3 nm. For the same molecule, the emission maximum (in CN(C)C=O) was 532.99 nm, the emission maximum (in Cc1ccccc1) was 481.21 nm and the emission maximum (in ClC(Cl)Cl) was 511.48 nm. It also gave an emission maximum (in ClCCl) of 532.99 nm and an emission maximum (in O=P(c1ccccc1)(c1ccccc1)c1ccccc1Oc1ccccc1P(=O)(c1ccccc1)c1ccccc1) of 484 nm.
For `F[Si](c1ccccc1)(c1c2ccccc2cc2ccccc12)c1c2ccccc2cc2ccccc12`, the emission maximum (in C1CCOC1) was 409 nm.
Work on `Cc1cccc2cc(C)c3c4ccccc4[nH]c3c12` yielded an emission maximum (in ClCCl) of 364 nm.
